Experimental data: patent publication US7704995B2 (Exelixis, Inc., priority 2003, dated 2010)

Molecular target: T1, Chk1 (Homo sapiens, UniProt O14757)
T1 construct: purchased Upstate Biotechnology
T1 sequence (O14757 1-476): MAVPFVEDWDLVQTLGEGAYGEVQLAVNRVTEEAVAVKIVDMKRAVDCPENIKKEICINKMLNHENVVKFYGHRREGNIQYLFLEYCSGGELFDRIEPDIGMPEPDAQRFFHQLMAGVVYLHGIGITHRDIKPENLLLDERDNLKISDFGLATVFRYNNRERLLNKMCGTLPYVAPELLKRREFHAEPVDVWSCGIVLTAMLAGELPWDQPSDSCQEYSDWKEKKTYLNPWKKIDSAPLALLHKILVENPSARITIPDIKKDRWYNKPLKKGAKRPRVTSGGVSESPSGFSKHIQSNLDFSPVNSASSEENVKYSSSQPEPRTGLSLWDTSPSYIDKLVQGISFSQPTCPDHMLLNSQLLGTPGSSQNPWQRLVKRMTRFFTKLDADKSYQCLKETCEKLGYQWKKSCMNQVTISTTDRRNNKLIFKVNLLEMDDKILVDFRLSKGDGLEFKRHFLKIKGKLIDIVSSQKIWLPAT
Experiment: Chk1 kinase assay: incorporation of γ-33P ATP into immobilized myelin basic protein
Type: biochemical
Conditions: Table 11, Chk1 only; class symbols A-D; read-out: Chk1 IC50
Method in brief: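 Chk1 (10 nM) or Chk2 (20 nM) phosphorylated plate-immobilized myelin basic protein for 1 h at room temperature in Hepes pH 7.6 buffer with MgCl2, DTT, 1% DMSO, γ-33P ATP plus 10 μM (Chk1) or 30 μM (Chk2) unlabeled ATP. Bound radioactivity counted by scintillation; IC50 determined, Ki derivable from IC50.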

## Nc1ncc(-c2cccc(C(=O)NCc3cccc(C(F)(F)F)c3F)c2)nc1C(=O)N[C@H]1CCCNC1 [Example 874, 3-amino-6-{3-[({[2-fluoro-3-(trifluoromethyl)phenyl]methyl}amino)carbonyl]phenyl}-N-[(3S)-piperidin-3-yl]pyrazine-2-carboxamide]
  IC50: < 50 nM

## Nc1ncc(-c2cccc(C(=O)NC[C@@H]3CCNC3)c2)nc1C(=O)N[C@H]1CCCNC1 [Example 875, 3-amino-N-[(3S)-piperidin-3-yl]-6-[3-({[(3R)-pyrrolidin-3-ylmethyl]amino}carbonyl)phenyl]pyrazine-2-carboxamide]
  IC50: < 50 nM

## Nc1ncc(-c2cccc(C(=O)N[C@@H]3CCNC3)c2)nc1C(=O)N[C@H]1CCCNC1 [Example 876, 3-amino-N-[(3S)-piperidin-3-yl]-6-(3-{[(3R)-pyrrolidin-3-ylamino]carbonyl}phenyl)pyrazine-2-carboxamide]
  IC50: < 50 nM

## Nc1ncc(-c2cccc(C(=O)NCCN3CCCCC3)c2)nc1C(=O)N[C@H]1CCCNC1 [Example 877, 3-amino-N-[(3S)-piperidin-3-yl]-6-(3-{[(2-piperidin-1-ylethyl)amino]carbonyl}phenyl)pyrazine-2-carboxamide]
  IC50: < 50 nM

## Nc1ncc(-c2cccc(C(=O)NCCc3ccccc3)c2)nc1C(=O)N[C@H]1CCCNC1 [Example 878, 3-amino-6-(3-{[(2-phenylethyl)amino]carbonyl}phenyl)-N-[(3S)-piperidin-3-yl]pyrazine-2-carboxamide]
  IC50: < 50 nM

## COCCNC(=O)c1cccc(-c2cnc(N)c(C(=O)N[C@H]3CCCNC3)n2)c1 [Example 879, 3-amino-6-[3-({[2-(methyloxy)ethyl]amino}carbonyl)phenyl]-N-[(3S)-piperidin-3-yl]pyrazine-2-carboxamide]
  IC50: 50 to 1000 nM

## Nc1ncc(-c2cccc(C(=O)NCc3ccc(I)cc3)c2)nc1C(=O)N[C@H]1CCCNC1 [Example 880, 3-amino-6-[3-({[(4-iodophenyl)methyl]amino}carbonyl)phenyl]-N-[(3S)-piperidin-3-yl]pyrazine-2-carboxamide]
  IC50: < 50 nM

## Nc1ncc(-c2cccc(C(=O)NCc3ccccc3Cl)c2)nc1C(=O)N[C@H]1CCCNC1 [Example 881, 3-amino-6-[3-({[(2-chlorophenyl)methyl]amino}carbonyl)phenyl]-N-[(3S)-piperidin-3-yl]pyrazine-2-carboxamide]
  IC50: < 50 nM

## Nc1ncc(-c2cccc(CNC(=O)c3ccc(F)cc3)c2)nc1C(=O)N[C@H]1CCCNC1 [Example 882, 3-amino-6-[3-({[(4-fluorophenyl)carbonyl]amino}methyl)phenyl]-N-[(3S)-piperidin-3-yl]pyrazine-2-carboxamide]
  IC50: < 50 nM

## Nc1ncc(-c2cccc(CNC(=O)c3ccc(OC(F)(F)F)cc3)c2)nc1C(=O)N[C@H]1CCCNC1 [Example 883, 3-amino-N-[(3S)-piperidin-3-yl]-6-(3-{[({4-[(trifluoromethyl)oxy]phenyl}carbonyl)amino]methyl}phenyl)pyrazine-2-carboxamide]
  IC50: < 50 nM

## Nc1ncc(-c2cccc(CNC(=O)c3ccc(Cl)cc3)c2)nc1C(=O)N[C@H]1CCCNC1 [Example 884, 3-amino-6-[3-({[(4-chlorophenyl)carbonyl]amino}methyl)phenyl]-N-[(3S)-piperidin-3-yl]pyrazine-2-carboxamide]
  IC50: < 50 nM

## Nc1ncc(-c2cccc(NC(=O)Cc3ccc(Cl)cc3)c2)nc1C(=O)N[C@H]1CCCNC1 [Example 885, 3-amino-6-(3-{[(4-chlorophenyl)acetyl]amino}phenyl)-N-[(3S)-piperidin-3-yl]pyrazine-2-carboxamide]
  IC50: < 50 nM

## Nc1ncc(-c2cccc(NC(=O)Cc3c(Cl)cccc3Cl)c2)nc1C(=O)N[C@H]1CCCNC1 [Example 886, 3-amino-6-(3-{[(2,6-dichlorophenyl)acetyl]amino}phenyl)-N-[(3S)-piperidin-3-yl]pyrazine-2-carboxamide]
  IC50: < 50 nM
